Measurements from PubChem BioAssay AID1963977 (Molecular Pharmacology Branch, DTP, NCI, 2024).
Values joined by “and” are separate entries in the source; they are usually repeats but may differ in a detail not shown here. Identical values can stand only once.

System: 624824-186-R-J3-PDC multicell spheroids, viability
Assay: Anticancer human tumor 624824-186-R-J3-PDC patient-derived colon adenocarcinoma cell line growth inhibition [PI3K]
Details: for viability, T/C: stronger effect = lower value
Description: Combinatorial screen of targeted agents with the PI3K inhibitors inavolisib, alpelisib, duvelisib, and copanlisib in multi-cell type tumor spheroids
A high-throughput screen of multi-cell type tumor spheroids was designed to identify active combinations of targeted small molecules and PI3K pathway inhibitors. Complex spheroids include a stromal component modeled by human endothelial cells (HUVEC) and fibroblasts modeled by human mesenchymal stem cells (MSCs). The concentration ranges selected for each drug and investigational agent were based upon clinically achievable concentrations if the clinical Cmax of the agent was known.
Compounds. The drugs and investigational agents: inavolisib (NSC800729), alpelisib (NSC765974), duvelisib (NSC772469), copanlisib (NSC816437), ipatasertib (NSC767898), afuresertib (NSC778305), talazoparib (NSC767125), sapanisertib (NSC764658), selumetinib (NSC741078), tovorafenib (DAY101, NSC766906), vemurafenib (NSC761431), ravoxertinib (NSC781343), sotorasib (NSC818433), MRTX1133 (NSC 836407), abemaciclib (NSC 768073), palbociclib (NSC758247), venetoclax (NSC 766270), SY5609 (NSC837396), enzalutamide (NSC755605), and darolutamide (NSC825331), were obtained from the National Cancer Institute (NCI) Developmental Therapeutics Program Chemical Repository. The FDA-approved anticancer drug set is available from the NCI Developmental Therapeutics Program. […] The stock solutions were prepared in dimethyl sulfoxide (DMSO, Sigma-Aldrich, St. Louis, MO, cat. D2650) at 800-fold the tested concentration and stored at -70 degrees C prior to their use. All drugs and investigational agents were tested over a range starting from a high concentration at or near the clinical Cmax and decreasing in half-log increments. If the clinical Cmax for an agent had not been determined, the highest concentration tested was 10 microM.
Cell Culture. All cells were maintained in an incubator at 37 degrees C and 5% CO2 with 95% humidity. The PDC lines were cultured according to standard operating procedures established by the NCI PDMR (https://pdmr.cancer.gov/sops/default.htm). All PDCs were thawed and cultured in Matrigel-coated flasks prepared with a working solution of 1X Ham's F-12 nutrient mix, without supplementation (Invitrogen, Waltham, MA, cat. 11765054), 100 U/mL penicillin-streptomycin (Invitrogen, cat. 15140122), and 2.5% Matrigel (Corning Inc., Corning, NY, cat. 354248) for the first three passages. The 354836-022-R-J1-PDC, 475296-252-R-J1-PDC, and 997726-040-R-J2-PDC lines were cultured in 6A media, which includes advanced DMEM/F-12 (Thermo Fisher Scientific, cat. 12634028), 10 mM HEPES (Thermo Fisher Scientific, cat. 15630080), 1X GlutaMAX supplement (Thermo Fisher Scientific, cat. 35050061), 0.1 mg/mL primocin (InvivoGen, San Diego, CA, cat. ant-pm-2), 10% defined fetal bovine serum, heat inactivated (HyClone Laboratories Inc., Logan, UT, cat. SH30070.03HI), 50% L-WRN conditioned media (ATCC, cat. CRL-3276), 1.25 mM N-Acetyl-L-cysteine (Sigma-Aldrich, cat. A9165), 10 mM nicotinamide (Sigma-Aldrich, cat. N0636), 1X B-27 supplement (Thermo Fisher Scientific, cat. 17504044), 1X N-2 supplement (Thermo Fisher Scientific, cat. 17502048), and 10 microM Y-27632 dihydrochloride (Tocris Bioscience, Bristol, United Kingdom, cat. 1254). The 624824-186-R-J2-PDC line was cultured in 6C/Colon 1B media, which includes all 6A media components plus 50 ng/mL human EGF recombinant protein (Thermo Fisher Scientific, cat. PHG0311). […]

[1] = compound alone, run of 04/24/2023
[2] = compound alone, run of 04/25/2023
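Also: spheroids exposed to agents for seven days before luminescence read.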
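For viability, T/C in this document: luminescent signal used as a stand-in for spheroid viability; percent viability relative to DMSO vehicle control wells taken as 100%.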

IC50 (curve of compound)	IC50 [1] [nM]	IC50 [2]	Structure (SMILES)	viability, T/C (compound 0.0316 µM)	viability, T/C (compound 0.1 µM)	viability, T/C (compound 0.316 µM)	viability, T/C (compound 1 µM)	viability, T/C (compound 3.16 µM)	viability, T/C (compound 10 µM)	viability, T/C (compound 0.000316 µM)	viability, T/C (compound 0.001 µM)	viability, T/C (compound 0.00316 µM)	viability, T/C (compound 0.01 µM)	viability, T/C (compound 0.00949 µM)	viability, T/C (compound 0.03 µM)	viability, T/C (compound 0.0949 µM)	viability, T/C (compound 0.3 µM)	viability, T/C (compound 0.949 µM)	viability, T/C (compound 3 µM)
> 10000 nM			C=CC(=O)N1CCN(c2nc(=O)n(-c3c(C)ccnc3C(C)C)c3nc(-c4c(O)cccc4F)c(F)cc23)C(C)C1 (configuration not stated)	103% [middle of 4 runs]	94.8% [middle of 4 runs]	103% [middle of 4 runs]	94.3% [middle of 4 runs]	104% [middle of 4 runs]	106% and 108% (3×)										
> 100 nM			CC(=O)c1c(C)c2cnc(Nc3ccc(N4CCNCC4)cn3)nc2n(C2CCCC2)c1=O	108% [middle of 4 runs]	105% [middle of 4 runs]					101% [middle of 4 runs]	103% [middle of 4 runs]	104% [middle of 4 runs]	98.7% [middle of 4 runs]						
> 10000 nM and 6500 nM			CC(C)NCC(C(=O)N1CCN(c2ncnc3c2C(C)CC3O)CC1)c1ccc(Cl)cc1 (configuration not stated)	101% [middle of 4 runs]	101% [middle of 4 runs]	102% (2×) and 100% and 105%	82% [middle of 4 runs]	67.8% [middle of 4 runs]	57.8% [middle of 4 runs]										
> 100 nM			CC(C)n1nc(-c2ccc3oc(N)nc3c2)c2c(N)ncnc21	99.4% [middle of 4 runs]	64.2% [middle of 4 runs]					103% [middle of 4 runs]	104% and 97.2% and 101% (2×)	106% [middle of 4 runs]	108% [middle of 4 runs]						
> 10000 nM			CC(Cn1ccc(-c2ccc(C#N)c(Cl)c2)n1)NC(=O)c1cc(C(C)O)[nH]n1 (configuration not stated)	96.5% [middle of 4 runs]	97.2% [middle of 4 runs]	105% [middle of 4 runs]	95.5% [middle of 4 runs]	99.4% [middle of 4 runs]	104% [middle of 4 runs]										
	> 1000		CC(Nc1ccc2c(c1)OCCn1cc(N3C(=O)OCC3C(F)F)nc1-2)C(N)=O (configuration not stated)	108% [middle of 7 runs]	109% [middle of 7 runs]	100% [middle of 7 runs]	88.5% [middle of 7 runs]					101% [middle of 7 runs]	103% [middle of 7 runs]						
		> 10000 nM	CC(Nc1ncnc2nc[nH]c12)c1cc2cccc(Cl)c2c(=O)n1-c1ccccc1 (configuration not stated)	103% [middle of 8 runs]		106% [middle of 8 runs]	108% [middle of 8 runs]	106% [middle of 8 runs]	94.7% [middle of 8 runs]										
			CC1(C)CCC(CN2CCN(c3ccc(C(=O)NS(=O)(=O)c4ccc(NCC5CCOCC5)c([N+](=O)[O-])c4)c(Oc4cnc5[nH]ccc5c4)c3)CC2)=C(c2ccc(Cl)cc2)C1	101% [middle of 4 runs]	99.1% [middle of 4 runs]	103% (2×) and 102% and 107%	105% [middle of 4 runs]	110% [middle of 4 runs]											
5.64 µM [middle of 4 runs]			CC1(C)CCC(Nc2ncc(C(F)(F)F)c(-c3c[nH]c4c(P(C)(C)=O)c(C#N)ccc34)n2)CN1 (configuration not stated)	106% [middle of 4 runs]	87.3% [middle of 4 runs]	96.5% [middle of 4 runs]	96.9% [middle of 4 runs]	100% [middle of 4 runs]	4.6% [middle of 4 runs]										
5.47 µM [middle of 4 runs]			CCCS(=O)(=O)Nc1ccc(F)c(C(=O)c2c[nH]c3ncc(-c4ccc(Cl)cc4)cc23)c1F	99.1% [middle of 4 runs]	97.5% [middle of 4 runs]	102% [middle of 4 runs]	95.5% [middle of 4 runs]	86% [middle of 4 runs]	11.9% [middle of 4 runs]										
> 1000 nM			CCN1CCN(Cc2ccc(Nc3ncc(F)c(-c4cc(F)c5nc(C)n(C(C)C)c5c4)n3)nc2)CC1	112% (2×) and 105% and 115%	107% [middle of 4 runs]	104% [middle of 4 runs]	104% [middle of 4 runs]					108% (2×) and 105% and 107%	106% [middle of 4 runs]						
> 10000 nM			CNC(=O)c1ccc(N2C(=S)N(c3ccc(C#N)c(C(F)(F)F)c3)C(=O)C2(C)C)cc1F	103% [middle of 4 runs]	102% [middle of 4 runs]	107% [middle of 4 runs]	104% [middle of 4 runs]	106% [middle of 4 runs]	104% [middle of 4 runs]										
		380 nM [middle of 8 runs]	COc1c(OCCCN2CCOCC2)ccc2c3n(c(=NC(=O)c4cnc(N)nc4)nc12)CCN3	102% [middle of 8 runs]	85.9% [middle of 8 runs]	54.4% [middle of 8 runs]	31.7% [middle of 8 runs]					102% [middle of 8 runs]	104% [middle of 8 runs]						
> 10000 nM			C[C@@H](NC(=O)c1ncnc(N)c1Cl)c1ncc(C(=O)Nc2cc(C(F)(F)F)c(Cl)cn2)s1	103% and 100% and 120%	96.1% and 93.2% (2×)	99.7% and 104% and 102%	99.9% and 97.9% and 107%	94.9% and 98.1% and 99.8%	89.5% and 97.3% and 104%										
	> 10000		Cc1nc(NC(=O)N2CCCC2C(N)=O)sc1-c1ccnc(C(C)(C)C(F)(F)F)c1 (configuration not stated)	102% [middle of 8 runs]	108% [middle of 8 runs]	109% [middle of 8 runs]	107% [middle of 8 runs]	94% [middle of 8 runs]	72.8% [middle of 8 runs]										
2050 nM and 1780 nM and 2370 nM			Cn1cnc2c(F)c(Nc3ccc(Br)cc3Cl)c(C(=O)NOCCO)cc21											97.1% and 99.4% and 96.4%	87.8% and 93.3% and 90.5%	89.1% and 88.9% and 83.9%	88.5% and 82.7% and 75.8%	67.2% and 63.3% and 74.6%	41.4% and 38.2% and 43.1%
> 10000 nM			Cn1nccc1Nc1nccc(-c2ccn(C(CO)c3ccc(Cl)c(F)c3)c(=O)c2)n1 (configuration not stated)	102% [middle of 4 runs]	95.1% [middle of 4 runs]	95.9% [middle of 4 runs]	80.8% [middle of 4 runs]	69.3% [middle of 4 runs]	60.9% [middle of 4 runs]										
> 100 nM			Cn1ncnc1[C@H]1c2n[nH]c(=O)c3cc(F)cc(c23)N[C@@H]1c1ccc(F)cc1	103% (2×) and 93.2% and 95.4%	98.4% [middle of 4 runs]					110% [middle of 4 runs]	100% [middle of 4 runs]		99.7% [middle of 4 runs]						
